Values of other authors in US20240390277A1, “LIQUID FORMULATIONS OF TRAZODONE” (Rubicon Research Private Limited, priority 2023, published 2024).

Details: humans

- Volume of distribution: 1.2 L/kg
Structure (SMILES): O=c1n(CCCN2CCN(c3cccc(Cl)c3)CC2)nc2ccccn12 [Trazodone]
